According to paper PMC3791928, “Preparation and First Preclinical Evaluation of [^18F]FE@SNAP: A Potential PET Tracer for the Melanin-Concentrating Hormone Receptor-1 (MCHR1)” (Scientia Pharmaceutica, 2013):
Counter-ions that a name gives are not always drawn. Like-named read-outs stand apart in the source and are kept apart here. Blank lines part the entries; values can stand above or below the compound they belong to.

Key:
porcine carboxylesterase = experiment: stability against carboxylesterase (Michaelis-Menten kinetics); type: in vitro ADME; conditions: porcine carboxylesterase 80 I.U., PBS pH 7.4, 37°C
Experimental: The method used was slightly modified from Nics et al.. Incubations of different amounts (10, 30, 50, 70, 100, 200 μg/ml) of FE@SNAP were accomplished with a constant quantity of 80 International Units (I.U.) of porcine carboxylesterase under physiological conditions (PBS, pH 7.4, 37°C). The use of selected concentrations of FE@SNAP was based on an optimal choice to create Michaelis-Menten kinetics (MMK). 35 μl of the incubation-mixture were stopped after defined points in time (0, 60, 120, 180, and 240 min) by adding the same amount of ice-cold acetonitrile/methanol (10:1) and then vortexed. After centrifugation of the reaction mixtures (23.000 × g, 5 min), 20 μL of the obtained supernatant were analyzed by analytical HPLC (for conditions see Plasma Stability). The MMK of FE@SNAP was calculated by using GraphPad Prism software Version 5.0 (La Jolla, CA, USA).

[1] = plasma stability in rat plasma; type: in vitro ADME; conditions: for degradation in rat plasma (in words): after 120 min
Experimental: (§1) The stability of [^18F]FE@SNAP in human and rat plasma was determined according to Nics et al.. 1800 μL of lithium-heparinized plasma (rat and human, respectively) were pre-incubated under physiological conditions (PBS, pH 7.4, 37°C) in a shaking incubator for 5 minutes. 36 μL [^18F]FE@SNAP (corresponding to 2% ethanol v/v in the total volume) were added and the plasma vial was vortexed for at least 10 seconds. After defined points in time (0 and 120 min), 500 μL of the incubation-mixture were added to a preconditioned (with 5 mL methanol followed by 5 mL water) SPE-cartridge (Oasis). The cartridge was then eluted into a collection tube, washed with 5 mL of 5% methanol in water (v/v) into a second tube, and eluted with 3 mL of THF into a third tube. 20 μL of the eluate-solution of tube two and three were injected into the analytical HPLC (mobile phase: (water/acetic acid 97.5/2.5 v/v; 2.5 g/L ammonium acetate; pH 3.5)/acetonitrile 70/30 v/v; flow: 2mL/min).

[2] = plasma free fraction (centrifugal filter units); type: in vitro ADME; conditions: human plasma, n=3
Experimental: The method used was modified from Parsey et al.. 1 mL of heparinized plasma (rat and human, respectively) were mixed with 10–50 μL [^18F]FE@SNAP. 200 μL aliquots were pipetted into the centrifugal filter units and the total radioactivity was measured in a Gamma Counter. After the centrifugation step (2.000 × g, 50 min), 50 μL of the obtained filtrate was back-measured for radioactivity. For the determination of the plasma free fraction (f1), the ratio of filtrate to total activity concentration was calculated.

hMCHR2 = target: T1, hMCHR2 (Homo sapiens, UniProt Q969V1); experiment: preliminary competition binding against [^125I]MCH on hMCHR2
T1 construct: purchased PerkinElmer; host or cells: CHO-K1 cell membranes (recombinant expression)
Text: [^18F]fluoride was produced via the ^18O(p,n)^18F reaction in a GE PET trace cyclotron (16.5-MeV protons; GE Medical Systems, Uppsala, Sweden). H2^18O (HYOX18; > 98%) was purchased from Rotem Europe (Leipzig, Germany). Typical beam currents were 48–52 μA and irradiation was stopped as soon as the desired activity level was reached (approx. 25–30 GBq). Anion-exchange cartridges (PS-HCO3) for [^18F]fluoride trapping were obtained from Macherey-Nagel (Dueren, Germany). The precursor compound (Tos@SNAP; 4, Fig. 1) and the reference standard (FE@SNAP) were synthesized in cooperation with the Department of Drug and Natural Product Synthesis of the University of Vienna (Austria). Solid phase extraction (SPE) cartridges SepPak® C18-plus and the Oasis HLB 6cc Vac (200 mg) were purchased from Waters (Waters® Associates, Milford, MA, USA). Sterile water Ecotainer® and 0.9% saline solution were purchased from B. Braun (Melsungen, Germany). 3% saline solution was obtained from a local pharmacy (Landesapotheke Salzburg, Austria). A 125 mM phosphate buffer was prepared by dissolving 0.224g sodium dihydrogen phosphate-monohydrate and 1.935g disodium hydrogen phosphate-dihydrate (both from Merck, Darmstadt, Germany) in 100 mL of sterile water. Phosphate-buffered saline (PBS) concentrate (10:1) was obtained from Morphisto (Frankfurt, Germany). […]

HPLC-based logD analysis = type: physicochemical; conditions: ODP-50 column, phosphate buffer pH 7.4, n=3
Experimental: LogD values were determined using an HPLC-based assay according to Donovan and Pescatore. A cocktail of two internal standards (toluene and triphenylene) with known logD and k′ values and FE@SNAP in methanol were injected into a short polymeric ODP-50 column. A linear gradient from 10% methanol/90% phosphate buffer (pH 7.4) to 100% methanol within 9.4 min at a flow rate of 1.5 mL/min was applied. Detection was performed at 260 nm and 285 nm.

human MCHR1 (hMCHR1) = target: human MCHR1 (hMCHR1); set-up: method as in PMID 12118247; conditions: Cos-7 cells expressing the human MCHR1; cited from earlier work
[3] = set-up: method as in PMID 23829932; conditions: evaluated previously; cited from earlier work
hMCHR1 = target: T2, hMCHR1 (Homo sapiens, UniProt Q99705); experiment: saturation binding of [^18F]FE@SNAP on CHO-K1 cell membranes expressing hMCHR1; conditions: CHO-K1 membranes expressing hMCHR1, room temperature, 120 min, n=2
T2 construct: purchased PerkinElmer; host or cells: CHO-K1 cell membranes (recombinant expression)
Experimental: The method used was conducted according to Mashiko et al. with minor modifications. CHO-K1 cell membranes expressing hMCHR1 (10 μg/mL) were dissolved in 500 μL and a 50 mM Tris buffer (pH 7.4) (containing 10 mM MgCl2, 2 mM EDTA, 0.1% bacitracin and 0.2% BSA). For the evaluation of the equilibrium dissociation constant (Kd) of [^18F]FE@SNAP, several concentrations (0–500 nM) of [^18F]FE@SNAP were added. The membranes were incubated in vials at room temperature for 120 min. Bound and free fractions of the radioligand were separated by centrifugation at 40.000 × g for 20 min. The supernatants were removed into new vials. The pellets were washed with 800 μL of the ice cold Tris buffer, which was added to the supernatant, and the pellets were dissolved in 1300 μL of the Tris buffer. The radioactivity in the vials was measured by a Gamma Counter. The Kd values were calculated by using GraphPad Prism software Version 5.0 (La Jolla, CA, USA).

[4] = plasma stability in human plasma; type: in vitro ADME; conditions: 37°C, pH 7.4, n=6
Experimental: as §1

[5] = test system: CYP450, human liver microsomes; experiment: stability against liver microsomes (CYP450), human; type: in vitro ADME; conditions: after 60 min, n=4
Experimental: (§2) The method used was described by Nics et al.. Briefly, liver microsomes (pooled from human or rat origin) were pre-incubated under physiological conditions (PBS, pH 7.4, 37°C) with a NADPH-generating system (solution-A: NADP+, glucose-6-phosphate and magnesium-chloride in H2O and solution-B: glucose-6-phosphate dehydrogenase in sodium citrate) for 5 min. 6 μL of [^18F]FE@SNAP, which correspond to 2% ethanol (v/v) in the total volume, were added. Enzymatic reactions were stopped after defined points in time (0, 2, 5, 10, 20, 40, and 60 min) by adding the same amount of ice-cold acetonitrile/methanol (10:1). The mixtures were vortexed, followed by a centrifugation step (23.000 × g, 5 min). Aliquots of the obtained supernatant were analyzed by an analytical HPLC (for conditions see Plasma Stability).

[6] = test system: CYP450, rat liver microsomes; experiment: stability against liver microsomes (CYP450), rat; type: in vitro ADME; conditions: after 60 min, n=4
Experimental: as §2

[7] = set-up: method as in PMID 10908045; conditions: cited from earlier work

T2 sequence (Q99705 whole entry): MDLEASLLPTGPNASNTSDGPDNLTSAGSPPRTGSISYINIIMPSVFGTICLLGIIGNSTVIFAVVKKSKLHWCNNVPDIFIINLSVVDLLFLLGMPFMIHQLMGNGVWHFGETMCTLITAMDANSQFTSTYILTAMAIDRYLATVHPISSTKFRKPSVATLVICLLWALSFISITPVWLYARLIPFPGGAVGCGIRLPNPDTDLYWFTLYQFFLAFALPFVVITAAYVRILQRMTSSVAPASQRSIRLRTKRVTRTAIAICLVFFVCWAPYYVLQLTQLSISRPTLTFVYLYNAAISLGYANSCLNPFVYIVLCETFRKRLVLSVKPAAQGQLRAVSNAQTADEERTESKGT
T1 sequence (Q969V1 whole entry): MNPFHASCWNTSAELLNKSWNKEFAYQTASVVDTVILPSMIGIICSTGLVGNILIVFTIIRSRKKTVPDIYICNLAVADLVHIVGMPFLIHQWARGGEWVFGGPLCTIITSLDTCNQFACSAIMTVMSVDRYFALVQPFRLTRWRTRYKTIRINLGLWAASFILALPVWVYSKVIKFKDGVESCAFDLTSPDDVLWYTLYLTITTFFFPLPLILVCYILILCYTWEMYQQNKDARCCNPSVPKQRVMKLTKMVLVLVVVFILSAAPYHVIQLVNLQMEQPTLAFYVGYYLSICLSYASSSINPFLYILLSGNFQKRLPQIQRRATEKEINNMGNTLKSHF

limiting velocity (Vmax) (porcine carboxylesterase): 0.874 µM/min | Km (porcine carboxylesterase; read-out: Michaelis-Menten constant (Km)): 347 µM | degradation in rat plasma (in words) [1]: complete | plasma free fraction (f1) [2]: 12.6 ± 0.2% | Ki (hMCHR2): > 1000 nM | logD (HPLC-based logD analysis): 3.83 ± 0.1
SMILES: COCC1=C(C(=O)OCCF)C(c2ccc(F)c(F)c2)N(C(=O)NCCCN2CCC(c3cccc(NC(C)=O)c3)CC2)C(=O)N1 (stereo not drawn) [FE@SNAP]

SMILES: COCC1=C(C(=O)OC)[C@H](c2ccc(F)c(F)c2)N(C(=O)NCCCN2CCC(c3cccc(NC(C)=O)c3)CC2)C(=O)N1 [SNAP-7941, (+)-methyl (4S)-3-{[(3-{4-[3-(acetylamino)phenyl]-1-piperidinyl}propyl)amino]carbonyl}-4-(3,4-difluorophenyl)-6-(methoxymethyl)-2-oxo-1,2,3,4-tetrahydro-5-pyrimidinecarboxylate hydrochloride]
Kd (human MCHR1 (hMCHR1)): 0.18 nM

SMILES: COCC1=C(C(=O)O[11CH3])[C@H](c2ccc(F)c(F)c2)N(C(=O)NCCCN2CCC(c3cccc(NC(C)=O)c3)CC2)C(=O)N1 [[^11C]SNAP-7941]
degradation in rat plasma (in words) [3]: rapid enzymatic degradation

degradation in rat plasma (in words) [1]: completely metabolized | degradation in rat plasma ([1]; initially (0 min), 37°C, pH 7.4, n=11): 32.44 ± 33.5% | fraction unbound ([2]; heparinized plasma, read-out: plasma free fraction (f1)): 0.126 ± 0.002 | Kd (hMCHR1): 2.9 nM | degradation in human plasma ([4]; after 0 min): 0.48 ± 0.5% | degradation in human plasma ([4]; after 120 min): 3.87 ± 3.9% | chromatographic logD (HPLC-based logD analysis; polymeric ODP-50 HPLC column): 3.83 | enzymatic degradation by CYP450 [5]: 5.39 ± 1.6% | enzymatic degradation by CYP450 [6]: 2.59 ± 1.8%
SMILES: COCC1=C(C(=O)OCC[18F])[C@H](c2ccc(F)c(F)c2)N(C(=O)NCCCN2CCC(c3cccc(NC(C)=O)c3)CC2)C(=O)N1 [[^18F]FE@SNAP]

SMILES: COc1ccccc1N1CCN(CCN(c2ccccn2)[11C](=O)C2CCCCC2)CC1 [[carbonyl-^11C]WAY-100635]
plasma free fraction [7]: 5.8 ± 0.2%
